Data: ChEMBL document CHEMBL2163339, “Discovery of potent inhibitors of human and mouse fatty acid amide hydrolases” (J Med Chem, 2012)
pIC50, pKi: −log10 of the molar value. Calls of active or inactive are those of the source.

Experiments:
[1] = target: T1, Fatty-acid amide hydrolase 1 (Mus musculus, UniProt O08914); assay: Inhibition of mouse FAAH isolated from brain homogenate using [3H-ethanolamine]AEA as substrate incubated for 20 mins prior to substrate addition measured after 15 mins by beta counting analysis
T1 sequence (O08914 whole entry): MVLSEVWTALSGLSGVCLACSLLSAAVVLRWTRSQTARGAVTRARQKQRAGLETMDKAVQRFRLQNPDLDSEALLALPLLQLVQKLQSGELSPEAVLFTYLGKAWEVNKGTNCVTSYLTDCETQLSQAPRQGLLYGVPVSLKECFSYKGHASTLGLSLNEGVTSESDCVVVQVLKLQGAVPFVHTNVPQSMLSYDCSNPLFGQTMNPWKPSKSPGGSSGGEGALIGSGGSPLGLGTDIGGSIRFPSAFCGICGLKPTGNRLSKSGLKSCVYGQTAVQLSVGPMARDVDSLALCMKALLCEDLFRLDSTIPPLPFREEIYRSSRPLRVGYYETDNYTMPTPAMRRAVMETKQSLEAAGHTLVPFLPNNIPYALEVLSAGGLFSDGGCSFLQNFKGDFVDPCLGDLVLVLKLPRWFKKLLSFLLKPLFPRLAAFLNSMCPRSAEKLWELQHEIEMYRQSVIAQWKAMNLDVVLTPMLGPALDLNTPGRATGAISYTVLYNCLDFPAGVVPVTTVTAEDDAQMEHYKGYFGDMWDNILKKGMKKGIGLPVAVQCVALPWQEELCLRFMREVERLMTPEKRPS

[2] = target: T2, N-acyl-phosphatidylethanolamine-hydrolyzing phospholipase D (Mus musculus) (UniProt Q8BH82); assay: Inhibition of NAPE-PLD-meidated AEA synthesis in mouse brain homogenate using [3H]NArPE as substrate incubated for 20 mins prior to substrate addition; format: tissue-based
T2 sequence (whole entry): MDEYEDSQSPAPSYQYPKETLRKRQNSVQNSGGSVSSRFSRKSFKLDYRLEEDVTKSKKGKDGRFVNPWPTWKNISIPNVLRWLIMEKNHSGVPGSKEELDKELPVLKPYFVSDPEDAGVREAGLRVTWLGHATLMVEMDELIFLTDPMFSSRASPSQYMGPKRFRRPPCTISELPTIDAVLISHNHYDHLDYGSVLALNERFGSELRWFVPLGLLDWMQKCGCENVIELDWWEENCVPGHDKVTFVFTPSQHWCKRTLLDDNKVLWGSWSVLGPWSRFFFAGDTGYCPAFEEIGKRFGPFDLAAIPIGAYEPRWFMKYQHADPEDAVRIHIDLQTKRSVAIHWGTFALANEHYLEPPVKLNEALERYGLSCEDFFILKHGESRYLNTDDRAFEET

Mus musculus [3] = assay: Toxicity against CD1 mouse assessed as limbic/striatal stereotypies at 10 mg/kg, po at 60 mins by Irwin test; format: organism-based; parameters: dose 10 mg/kg, route oral; settings: in vivo, 1 h
Rattus norvegicus [4] = assay: Analgesic activity in rat assessed as increase in paw withdrawal threshold at 10 mg/kg, po; format: functional, organism-based; parameters: dose 10 mg/kg
[5] = target: T3, Monoglyceride lipase (Mus musculus) (UniProt O35678); assay: Inhibition of MAGL-mediated 2AG hydrolysis in mouse brain homogenate using [3H]2OG as substrate incubated for 20 mins prior to substrate addition; format: tissue-based
T3 sequence (whole entry): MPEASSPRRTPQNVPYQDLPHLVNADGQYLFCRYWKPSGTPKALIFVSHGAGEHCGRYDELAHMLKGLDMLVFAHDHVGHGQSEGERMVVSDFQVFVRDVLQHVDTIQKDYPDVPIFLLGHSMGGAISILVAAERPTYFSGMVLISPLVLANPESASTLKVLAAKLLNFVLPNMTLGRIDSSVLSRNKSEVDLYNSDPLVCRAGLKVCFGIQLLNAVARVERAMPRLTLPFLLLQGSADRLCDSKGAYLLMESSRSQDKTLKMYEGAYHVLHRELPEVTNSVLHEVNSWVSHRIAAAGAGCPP

Mus musculus [6] = assay: Toxicity against CD1 mouse assessed as limbic/striatal stereotypies at 30 mg/kg, po at 240 mins by Irwin test; format: organism-based; parameters: dose 30 mg/kg, route oral; settings: in vivo, 4 h
Mus musculus [7] = assay: Anxiolytic activity in mouse at 10 mg/kg, po measured for 5 mins by elevated plus maze test; format: organism-based; parameters: dose 10 mg/kg, route oral; settings: in vivo
Mus musculus [8] = species on record: Mus musculus; assay: Inhibition of DAGL-mediated 2AG synthesis in mouse brain homogenate using […] as substrate incubated for 20 mins prior to substrate addition; format: tissue-based
[9] = target: Cannabinoid receptor 1 (Mus musculus) (UniProt P47746); assay: Displacement of [3H]CP55.940 from CB1 receptor in mouse brain fraction; format: tissue-based
Mus musculus [10] = assay: Anxiolytic activity in mouse at 3 mg/kg, po measured for 5 mins by elevated plus maze test; format: organism-based; parameters: dose 3 mg/kg, route oral; settings: in vivo
[11] = target: Transient receptor potential cation channel subfamily V member 1 (Mus musculus) (UniProt Q704Y3); assay: Displacement of [3H]RTX from TRPV1 receptor in mouse brain fraction; format: tissue-based
Rattus norvegicus [12] = assay: Analgesic activity in rat assessed as increase in paw withdrawal threshold at 100 mg/kg, po; format: functional, organism-based; parameters: dose 100 mg/kg
Mus musculus [13] = assay: Toxicity against CD1 mouse assessed as limbic/striatal stereotypies at 10 mg/kg, po at 240 mins by Irwin test; format: organism-based; parameters: dose 10 mg/kg, route oral; settings: in vivo, 4 h
[14] = target: Cannabinoid receptor 2 (Mus musculus) (UniProt P47936); assay: Displacement of [3H]CP55.940 from CB2 receptor in mouse spleen fraction; format: tissue-based
Mus musculus [15] = assay: Anxiolytic activity in mouse at 30 mg/kg, po measured for 5 mins by elevated plus maze test; format: organism-based; parameters: dose 30 mg/kg, route oral; settings: in vivo
Rattus norvegicus [16] = assay: Analgesic activity in rat assessed as increase in paw withdrawal threshold at 30 mg/kg, po; format: functional, organism-based; parameters: dose 30 mg/kg
Mus musculus [17] = assay: Toxicity against CD1 mouse assessed as limbic/striatal stereotypies at 100 mg/kg, po at 240 mins by Irwin test; format: organism-based; parameters: dose 100 mg/kg, route oral; settings: in vivo, 4 h
Mus musculus [18] = assay: Toxicity against CD1 mouse assessed as limbic/striatal stereotypies at 30 mg/kg, po at 60 mins by Irwin test; format: organism-based; parameters: dose 30 mg/kg, route oral; settings: in vivo, 1 h
Mus musculus [19] = assay: Toxicity against CD1 mouse assessed as limbic/striatal stereotypies at 100 mg/kg, po at 60 mins by Irwin test; format: organism-based; parameters: dose 100 mg/kg, route oral; settings: in vivo, 1 h
[20] = target: T4, Fatty-acid amide hydrolase 1 (Mus musculus) (UniProt O08914); assay: Reversible inhibition of mouse FAAH isolated from brain homogenate using [3H-ethanolamine]AEA as substrate incubated for 20 mins prior to substrate addition measured after 18 hrs by […] method
T4 sequence (whole entry): T1 sequence (O08914 whole entry)

[21] = target: T4, Fatty-acid amide hydrolase 1 (Mus musculus); assay: Non-competitive inhibition of mouse FAAH isolated from brain homogenate using [3H-ethanolamine]AEA as substrate by Lineweaver-Burk plot analysis
[22] = target: Voltage-gated inwardly rectifying potassium channel KCNH2 (Homo sapiens, UniProt Q12809); assay: Inhibition of human ERG expressed in CHOK1 cells for 5 mins by automated patch clamp assay; format: cell-based, CHO-K1
Voltage-gated inwardly rectifying potassium channel KCNH2, sequence (Q12809 whole entry): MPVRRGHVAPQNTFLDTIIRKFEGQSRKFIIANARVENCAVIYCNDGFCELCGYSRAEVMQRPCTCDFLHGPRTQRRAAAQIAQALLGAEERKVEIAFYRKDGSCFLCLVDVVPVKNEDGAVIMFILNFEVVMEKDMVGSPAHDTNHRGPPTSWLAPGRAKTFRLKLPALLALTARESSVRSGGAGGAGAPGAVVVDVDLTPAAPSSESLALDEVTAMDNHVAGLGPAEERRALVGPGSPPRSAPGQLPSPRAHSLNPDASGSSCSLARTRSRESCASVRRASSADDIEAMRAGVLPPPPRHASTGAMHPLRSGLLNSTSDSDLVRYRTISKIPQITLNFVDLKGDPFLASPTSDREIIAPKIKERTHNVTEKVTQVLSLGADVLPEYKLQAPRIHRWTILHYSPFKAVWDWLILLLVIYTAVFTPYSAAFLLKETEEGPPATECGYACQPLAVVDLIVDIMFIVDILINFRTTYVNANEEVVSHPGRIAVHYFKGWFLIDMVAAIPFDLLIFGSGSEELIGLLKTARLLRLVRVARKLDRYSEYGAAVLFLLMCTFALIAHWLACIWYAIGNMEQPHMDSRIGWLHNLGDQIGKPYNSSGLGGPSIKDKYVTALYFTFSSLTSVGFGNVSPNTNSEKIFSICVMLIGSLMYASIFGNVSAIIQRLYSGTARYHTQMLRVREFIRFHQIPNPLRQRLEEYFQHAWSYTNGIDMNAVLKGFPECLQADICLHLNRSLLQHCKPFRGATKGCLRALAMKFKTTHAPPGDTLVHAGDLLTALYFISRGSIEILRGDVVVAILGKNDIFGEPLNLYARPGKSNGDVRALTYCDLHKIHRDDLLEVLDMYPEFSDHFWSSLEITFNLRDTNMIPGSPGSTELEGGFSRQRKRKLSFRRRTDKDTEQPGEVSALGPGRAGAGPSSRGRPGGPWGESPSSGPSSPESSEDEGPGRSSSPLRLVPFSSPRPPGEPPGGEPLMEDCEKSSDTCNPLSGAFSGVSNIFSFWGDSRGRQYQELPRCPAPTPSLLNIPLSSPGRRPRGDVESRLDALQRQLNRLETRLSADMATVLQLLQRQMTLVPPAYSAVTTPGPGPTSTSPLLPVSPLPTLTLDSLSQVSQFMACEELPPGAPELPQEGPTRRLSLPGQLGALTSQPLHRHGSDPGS

Transient receptor potential cation channel subfamily V member 1 (Mus musculus), sequence (Q704Y3 whole entry): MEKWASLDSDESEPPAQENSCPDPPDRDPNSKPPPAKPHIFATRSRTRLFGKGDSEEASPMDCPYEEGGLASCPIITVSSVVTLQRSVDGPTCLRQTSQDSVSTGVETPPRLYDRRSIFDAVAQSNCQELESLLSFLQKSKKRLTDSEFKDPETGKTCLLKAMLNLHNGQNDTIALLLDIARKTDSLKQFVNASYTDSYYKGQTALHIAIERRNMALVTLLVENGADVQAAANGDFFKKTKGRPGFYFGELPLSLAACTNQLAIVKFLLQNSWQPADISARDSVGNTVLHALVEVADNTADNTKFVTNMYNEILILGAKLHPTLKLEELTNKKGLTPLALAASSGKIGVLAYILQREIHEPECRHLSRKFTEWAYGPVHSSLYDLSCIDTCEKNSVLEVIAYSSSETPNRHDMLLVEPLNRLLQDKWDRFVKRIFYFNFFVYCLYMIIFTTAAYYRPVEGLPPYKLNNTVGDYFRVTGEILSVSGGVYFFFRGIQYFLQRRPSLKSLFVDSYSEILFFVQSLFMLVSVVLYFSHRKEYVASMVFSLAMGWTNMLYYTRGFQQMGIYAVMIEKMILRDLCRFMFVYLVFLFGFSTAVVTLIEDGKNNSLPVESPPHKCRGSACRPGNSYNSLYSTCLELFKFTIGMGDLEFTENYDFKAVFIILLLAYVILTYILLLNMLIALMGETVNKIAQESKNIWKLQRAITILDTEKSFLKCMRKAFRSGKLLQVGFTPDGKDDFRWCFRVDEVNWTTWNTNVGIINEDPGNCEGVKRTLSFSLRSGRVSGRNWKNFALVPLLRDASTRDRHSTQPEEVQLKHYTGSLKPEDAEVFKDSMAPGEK
Cannabinoid receptor 2 (Mus musculus), sequence (P47936 whole entry): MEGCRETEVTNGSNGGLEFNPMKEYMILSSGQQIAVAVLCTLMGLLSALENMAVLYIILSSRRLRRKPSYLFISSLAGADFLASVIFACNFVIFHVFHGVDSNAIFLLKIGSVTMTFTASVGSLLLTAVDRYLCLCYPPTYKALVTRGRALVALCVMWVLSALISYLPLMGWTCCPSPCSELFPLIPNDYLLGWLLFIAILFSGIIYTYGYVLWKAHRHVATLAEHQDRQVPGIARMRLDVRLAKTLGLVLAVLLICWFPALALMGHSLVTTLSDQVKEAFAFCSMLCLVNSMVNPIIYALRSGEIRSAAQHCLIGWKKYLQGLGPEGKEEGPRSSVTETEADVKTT
Cannabinoid receptor 1 (Mus musculus), sequence (P47746 whole entry): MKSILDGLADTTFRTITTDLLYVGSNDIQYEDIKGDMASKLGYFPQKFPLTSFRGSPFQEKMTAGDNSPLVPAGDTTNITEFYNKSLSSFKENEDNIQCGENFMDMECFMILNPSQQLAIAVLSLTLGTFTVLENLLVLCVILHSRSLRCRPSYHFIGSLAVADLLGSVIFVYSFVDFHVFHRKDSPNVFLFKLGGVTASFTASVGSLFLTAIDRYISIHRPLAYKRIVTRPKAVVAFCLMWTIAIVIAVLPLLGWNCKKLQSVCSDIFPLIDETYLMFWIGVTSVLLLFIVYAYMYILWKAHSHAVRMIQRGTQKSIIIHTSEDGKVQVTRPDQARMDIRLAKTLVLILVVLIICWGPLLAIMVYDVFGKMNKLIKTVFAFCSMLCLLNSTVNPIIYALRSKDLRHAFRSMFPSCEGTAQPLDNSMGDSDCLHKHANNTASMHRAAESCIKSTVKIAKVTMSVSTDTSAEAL

`Cc1cc(C(N)=O)c(-c2cccc(OC(=O)NC3CCCCC3)c2)o1` gave a pIC50 [1] of less than 7.15.

`O=C(NC1CCCCC1)Oc1cccc(-n2ccc(C(=O)OCCCCCCc3ccccc3)c2)c1` gave a pIC50 [1] of less than 4.30.

For `C#CCCCCCCCCCNC(=O)Oc1cccc(-n2ccc(C(N)=O)c2)c1`, the inhibition [2] was “inactive”, the Activity (Mus musculus [3]) was “Toxic” and the Activity (Rattus norvegicus [4]) was “inactive”. For the same molecule, the inhibition [5] was “inactive”, the Activity (Mus musculus [6]) was “Non-toxic” and the Activity (Mus musculus [7]) was “Non-toxic”. For the same molecule, the inhibition (Mus musculus [8]) was “inactive”, the Activity [9] was “inactive” and the Activity (Mus musculus [10]) was “Non-toxic”. For the same molecule, the Activity [11] was “inactive”, the Activity (Rattus norvegicus [12]) was “Active” and the Activity (Mus musculus [13]) was “Non-toxic”. For the same molecule, the pIC50 [1] was 9.17, the pKi [1] was 9.74 and the Activity [14] was “inactive”. For the same molecule, the Activity (Mus musculus [15]) was “Non-toxic”, the Activity (Rattus norvegicus [16]) was “Active” and the Activity (Mus musculus [17]) was “Non-toxic”. The Activity (Mus musculus [18]) was “Toxic” and the Activity (Mus musculus [19]) was “Toxic”.

With `NC(=O)c1ccn(-c2cccc(OC(=O)NCCCCCCc3ccccc3)c2)c1` the inhibition [20] was “Active”, the inhibition [2] was “inactive” and the Activity (Mus musculus [3]) was “Toxic”. For the same molecule, the Activity (Rattus norvegicus [4]) was “inactive”, the inhibition [5] was “inactive” and the Activity (Mus musculus [6]) was “Toxic”. For the same molecule, the Activity (Mus musculus [7]) was “Non-toxic”, the inhibition (Mus musculus [8]) was “inactive” and the Activity [9] was “inactive”. For the same molecule, the Activity (Mus musculus [10]) was “Non-toxic”, the Activity [11] was “inactive” and the Activity (Rattus norvegicus [12]) was “Active”. The Activity (Mus musculus [13]) was “Toxic”, the pIC50 [1] was 9.22 and the pKi [1] was 9.80. For the same molecule, the Activity [14] was “inactive”, the Activity (Mus musculus [15]) was “Non-toxic” and the inhibition [21] was “Active”. For the same molecule, the pIC50 [22] was less than 5.00, the Activity (Rattus norvegicus [16]) was “Active” and the Activity (Mus musculus [17]) was “Toxic”. For the same molecule, the Activity (Mus musculus [18]) was “Toxic” and the Activity (Mus musculus [19]) was “Toxic”.

`Cc1oc(-c2cccc(OC(=O)NC3CCCCC3)c2)cc1C(N)=O` was tested, and the pIC50 [1] was less than 6.70.

Molecule `NC(=O)c1ccn(-c2cccc(OC(=O)NCCOCCOc3ccccc3)c2)c1` has a pIC50 [1] of 7.06 and a pKi [1] of 7.64.

With `CCCCNC(=O)Oc1cccc(-n2ccc(C(N)=O)c2)c1` the pIC50 [1] was 6.62 and the pKi [1] was 7.22.

With `Cc1cc(C(N)=O)c(-c2cccc(OC(=O)NC3CCCCC3)c2)s1` the pIC50 [1] was less than 6.70.

With `COc1cccc(-c2c(C(=O)NCCCCCCc3ccccc3)cc(C)n2Cc2ccccc2)c1` the pIC50 [1] was less than 6.70.

Molecule `C#CCCCCCCCCCOC(=O)c1ccn(-c2cccc(OC(=O)NC3CCCCC3)c2)c1` has a pIC50 [1] of less than 5.00.

Molecule `COc1cccc(-c2c(C(=O)NCCCCCc3ccccc3)cc(C)n2Cc2ccccc2)c1` has a pIC50 [1] of less than 4.30.

`NC(=O)c1ccn(-c2cccc(OC(=O)NCCOCCOc3ccccc3F)c2)c1` showed a pIC50 [1] of 7.16 and a pKi [1] of 7.74.

Molecule `Cc1cc(C(=O)NCCCCCCc2ccccc2)c(-c2cccc(OC(=O)NC3CCCCC3)c2)n1Cc1ccccc1` has a pIC50 [1] of less than 6.70.

`CCCCNC(=O)Oc1cccc(-c2sc(C)cc2C(N)=O)c1` was tested, and the pIC50 [1] was less than 6.70.
